Measured values taken from patent US8106052B2, “Luminescence-based methods and probes for measuring cytochrome P450 activity” (Promega Corporation, priority 2002, dated 2012).

How the values were obtained:
thermostable luciferase = experiment: Stabilization of luminescent signal using luciferase inhibitors; details: 100 micromolar inhibitor; CYP1A1 with Luciferin chloroethyl ether; read for 1 hour
Protocol: FIG. 17. Stabilization of luminescent signals using luciferase inhibitors. […] Luminescence was read immediately and at subsequent 5 minute intervals for 1 hour.
(AMBT) or 2-(4-aminophenyl)-6-methylbenzothiazole (APMBT), were evaluated to determine their effect on stabilizing a luminescent signal.
Luminescence was read immediately and at subsequent 5 minute intervals for 1 hour.

CYP1A1 [1] = molecular target: T1, CYP1A1 (Homo sapiens, UniProt P04798); experiment: Two-step luminescent CYP450 inhibition assay; format: biochemical; parameters: purchased GenTest (Woburn, Mass.); host or cells: Sf9 insect cells; details: substrate Luc CEE; 50 microliter reaction, 1 picomole CYP450; read-out: IC50 of known CYP450 substrate against CYP1A1/Luc CEE
T1 sequence (P04798 1-512): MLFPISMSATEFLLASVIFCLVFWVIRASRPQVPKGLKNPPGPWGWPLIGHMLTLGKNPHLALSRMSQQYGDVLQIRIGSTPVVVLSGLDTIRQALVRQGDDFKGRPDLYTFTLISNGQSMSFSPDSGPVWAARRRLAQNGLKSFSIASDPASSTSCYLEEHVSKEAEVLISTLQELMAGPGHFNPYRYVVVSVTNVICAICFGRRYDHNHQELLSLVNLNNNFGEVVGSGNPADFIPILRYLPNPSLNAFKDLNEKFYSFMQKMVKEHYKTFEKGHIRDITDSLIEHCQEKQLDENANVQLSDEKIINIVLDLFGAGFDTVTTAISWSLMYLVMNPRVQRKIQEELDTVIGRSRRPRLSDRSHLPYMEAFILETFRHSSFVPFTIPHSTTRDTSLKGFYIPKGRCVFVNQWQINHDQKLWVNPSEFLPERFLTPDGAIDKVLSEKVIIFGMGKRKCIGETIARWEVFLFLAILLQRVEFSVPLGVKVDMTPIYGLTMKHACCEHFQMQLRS
Protocol: After an initial incubation period at 37° C.
Luciferin derivatives as substrates for luminescent CYP450 assays would be useful as probes for detecting other CYP450 substrates. Because two distinct substrates for the same CYP450 isoform will likely compete for the active site, it is possible to characterize known substrates and to identify novel substrates by observing their capacity to inhibit the luminescent reactions with luciferin derivatives. […] The drugs inhibited the reactions in a dose-dependent manner, thus verifying the expectation that CYP450 substrates can be detected by these luminescent assays (see table below). IC50s were calculated by non-linear regression analysis with the program GraphPad PRISM™ (San Diego, Calif.). The reactions were performed as described in Example 2 except the first step (CYP450 reaction) was in a 50 microliter reaction volume with 1 picomole of CYP450. In the second step a 50 microliter luciferase reaction was added to give final concentrations of 50 micrograms/mL recombinant, mutant of firefly luciferase from Photuris pennsylvanica from Promega (17), 200 micromolar ATP, 0.1% tergitol (v/v), 4.0 mM MgSO4 and 100 mM Tricine pH 8.4. FIGS. 11(a)-(c) illustrate the actual inhibition curves.

CYP2E1 = molecular target: T2, CYP2E1 (Homo sapiens, UniProt P05181); experiment: Two-step CYP450/Renilla reaction, coelenterazine derivative evaluation; format: biochemical; details: 60 min at 37° C.; 3 micromolar substrate
T2 construct: purchased GenTest (Woburn, Mass.); host or cells: Sf9 insect cells, baculovirus
T2 sequence (P05181 whole entry): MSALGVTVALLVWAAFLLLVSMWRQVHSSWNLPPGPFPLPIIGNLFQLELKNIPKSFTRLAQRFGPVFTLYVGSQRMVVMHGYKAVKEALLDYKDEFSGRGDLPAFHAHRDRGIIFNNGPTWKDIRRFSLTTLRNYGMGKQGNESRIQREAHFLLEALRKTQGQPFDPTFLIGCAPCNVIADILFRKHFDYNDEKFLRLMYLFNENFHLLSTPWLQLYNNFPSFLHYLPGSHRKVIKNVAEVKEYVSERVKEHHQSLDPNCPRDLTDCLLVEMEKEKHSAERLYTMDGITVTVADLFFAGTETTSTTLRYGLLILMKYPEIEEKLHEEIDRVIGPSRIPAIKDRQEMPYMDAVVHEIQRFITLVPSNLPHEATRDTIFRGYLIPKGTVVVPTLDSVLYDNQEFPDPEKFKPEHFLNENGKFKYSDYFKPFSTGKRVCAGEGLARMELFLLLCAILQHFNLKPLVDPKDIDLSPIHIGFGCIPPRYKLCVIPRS
Protocol: (§1) In this Example, P450 activity was determined using coelenterazine and coelenterazine derivatives, methoxy-coelenterazine HH and coelenterazine HH, in a two-step reaction system. In these assays, P450 acts on the coelenterazine or coelenterazine derivatives in one of two ways. […] An example of this type of coelenterazine derivative is methoxy-coelenterazine HH. […] In both types of assay it is possible to detect P450 activity either directly by a change in chemiluminescence or indirectly by a change in bioluminescence from a Renilla-type luciferase.
(§2) […]; 625 mM KCl; 0.125 mM EDTA pH 8.0; 0.25% Triton X-100; 0.125% Mazu; 1.25% Glycerol; 0.25 mg/mL gelatin to the P450 reactions. Renilla luciferase (1.2 ng/mL) (purchased from Chemicon) was added for detection of bioluminescence of P450 altered coelenterazine or coelenterazine derivatives.

CYP1A2 = molecular target: T3, CYP1A2 (Homo sapiens, UniProt P05177); experiment: as above; format: biochemical; details: 60 min at 37° C.
T3 sequence (P05177 1-516): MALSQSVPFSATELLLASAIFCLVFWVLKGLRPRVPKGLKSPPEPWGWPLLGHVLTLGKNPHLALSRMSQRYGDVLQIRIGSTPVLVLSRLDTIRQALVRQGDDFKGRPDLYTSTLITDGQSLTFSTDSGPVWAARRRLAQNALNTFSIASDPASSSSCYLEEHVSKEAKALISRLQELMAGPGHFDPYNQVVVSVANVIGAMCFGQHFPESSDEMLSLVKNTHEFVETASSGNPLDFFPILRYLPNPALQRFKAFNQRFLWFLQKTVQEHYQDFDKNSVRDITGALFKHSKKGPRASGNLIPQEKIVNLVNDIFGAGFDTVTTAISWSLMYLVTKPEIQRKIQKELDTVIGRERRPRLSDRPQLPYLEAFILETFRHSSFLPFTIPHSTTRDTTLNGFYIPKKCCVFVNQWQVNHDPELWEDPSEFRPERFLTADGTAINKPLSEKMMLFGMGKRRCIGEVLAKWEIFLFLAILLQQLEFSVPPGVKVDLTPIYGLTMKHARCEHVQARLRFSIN
Protocol: as §1, §2

CYP2B6 = molecular target: T4, CYP2B6 (Homo sapiens, UniProt P20813); experiment: as above; format: biochemical; details: 60 min at 37° C.; 10 micromolar substrate
T4 construct: purchased GenTest (Woburn, Mass.); host or cells: Sf9 insect cells, baculovirus
T4 sequence (P20813 1-491): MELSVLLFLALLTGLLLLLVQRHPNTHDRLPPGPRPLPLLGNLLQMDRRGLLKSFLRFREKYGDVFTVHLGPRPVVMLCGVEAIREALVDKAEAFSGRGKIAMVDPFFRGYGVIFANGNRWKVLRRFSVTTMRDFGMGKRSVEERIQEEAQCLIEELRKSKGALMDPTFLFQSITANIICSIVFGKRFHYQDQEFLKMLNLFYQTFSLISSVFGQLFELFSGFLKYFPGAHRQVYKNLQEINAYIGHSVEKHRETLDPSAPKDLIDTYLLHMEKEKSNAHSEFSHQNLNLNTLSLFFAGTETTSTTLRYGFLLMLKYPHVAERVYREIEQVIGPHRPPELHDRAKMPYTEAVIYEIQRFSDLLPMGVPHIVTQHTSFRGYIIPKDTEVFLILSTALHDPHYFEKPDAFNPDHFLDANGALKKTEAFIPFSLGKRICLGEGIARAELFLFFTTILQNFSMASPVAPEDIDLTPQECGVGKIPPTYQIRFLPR
Protocol: as §1, §2

CYP2C19 = molecular target: T5, CYP2C19 (Homo sapiens, UniProt P33261); experiment: as above; format: biochemical; details: 60 min at 37° C.; 10 micromolar substrate
T5 construct: purchased GenTest (Woburn, Mass.); host or cells: Sf9 insect cells, baculovirus
T5 sequence (P33261 whole entry): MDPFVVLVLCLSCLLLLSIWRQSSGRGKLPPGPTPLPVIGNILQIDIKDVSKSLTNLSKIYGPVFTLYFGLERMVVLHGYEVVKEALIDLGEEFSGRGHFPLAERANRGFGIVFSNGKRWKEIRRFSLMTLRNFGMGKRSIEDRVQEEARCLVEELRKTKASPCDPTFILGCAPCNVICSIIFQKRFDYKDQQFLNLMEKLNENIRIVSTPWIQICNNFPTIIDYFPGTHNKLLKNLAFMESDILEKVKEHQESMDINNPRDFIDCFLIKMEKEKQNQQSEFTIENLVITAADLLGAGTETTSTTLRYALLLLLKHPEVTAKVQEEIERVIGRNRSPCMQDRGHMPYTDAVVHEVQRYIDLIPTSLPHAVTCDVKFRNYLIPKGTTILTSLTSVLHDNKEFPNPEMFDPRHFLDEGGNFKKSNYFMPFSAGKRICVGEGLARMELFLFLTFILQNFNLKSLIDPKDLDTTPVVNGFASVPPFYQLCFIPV
Protocol: as §1, §2

CYP1A1 [2] = molecular target: T1, CYP1A1; experiment: as above; format: biochemical; parameters: purchased GenTest (Woburn, Mass.); host or cells: baculovirus-infected insect cells; details: 60 min at 37° C.; 10 micromolar substrate
Protocol: as §1, §2

## Cc1ccc2nc(-c3ccc(N)cc3)sc2c1 [APMBT, 2-(4-aminophenyl)-6-methylbenzothiazole]
Thermostable luciferase
  Effect on luminescent signal in a luminescent CYP450 assay: stabilizes the luminescent signal

## CCOc1ccc(NC(C)=O)cc1 [Phenacetin, phenacetin]
CYP1A1 [1]
  IC50: 21 µM

## O=c1c(Cc2ccccc2)nc2c(Cc3ccccc3)[nH]c(-c3ccccc3)cn1-2 [coelenterazine HH, 2,8-Dibenzyl-6-phenyl-7H-imidazo[1,2-a]pyrazin-3-one]
CYP2E1
  Change in chemiluminescence and bioluminescence after incubation with CYP2E1: significant reduction
CYP1A2; 3 micromolar substrate
  Change in chemiluminescence and bioluminescence after incubation with CYP1A2: significant reduction

## COc1c(Cc2ccccc2)nc2c(Cc3ccccc3)nc(-c3ccccc3)cn12 [methyl-coelenterazine HH, 2,8-Dibenzyl-3-methoxy-6-phenyl-imidazo[1,2-a]pyrazine]
CYP2B6
  Increase in chemiluminescence and bioluminescence with CYP2B6 (+P450 RLU/-P450 RLU): 2-5 ×
CYP2C19
  Increase in chemiluminescence and bioluminescence with CYP2C19 (+P450 RLU/-P450 RLU): 2-5 ×
CYP1A2; 10 micromolar substrate
  Increase in chemiluminescence and bioluminescence with CYP1A2 (+P450 RLU/-P450 RLU): 2-5 ×
CYP1A1 [2]
  Change in chemiluminescence and bioluminescence after incubation with CYP1A1: large increase
